The nature of assay [1]: Hydroxyl radical scavenging assay (deoxyribose degradation method). The conditions noted are these: mean ± SD (n = 3). Here is the method:
The potential of the compounds to scavenge the hydroxyl free radical was assayed by the deoxyribose degradation method as described by Elizabeth and Rao [23]. Catechin was used as a reference antioxidant. Compound at different concentrations was mixed with a reaction mixture containing 2.8 mM 2-deoxy-2-ribose, 20 mM phosphate buffer (pH 7.4), 100 μM FeCl3, 100 μM EDTA, 1.0 mM H2O2, and 100 μM ascorbic acid and incubated at 37°C for 1 hour. This was then followed by the addition of 2.8% trichloro acetic acid (TCA) and 1% TBA. The reaction mixture was heated on a boiling water bath. After cooling, the absorbance was measured at 532 nm against an appropriate blank solution. The result was expressed as percent scavenging of hydroxyl radical in relation to the control. The IC50 values were calculated from the graph plotted as percent scavenging of hydroxyl free radical against concentration of each compound.

Assay [2] relates to lipid peroxidation in mouse brain homogenate. The assay is described as follows: Lipid peroxidation inhibition assay (TBARS). The class given is biochemical. Conditions: ferric ion plus ascorbic acid, mean ± SD (n = 3). Here is the method: . Catechin was used as a reference antioxidant. Mouse brain homogenate was employed as the source of lipid which was prepared by homogenizing the brain in the phosphate buffer followed by centrifugation at 10,000 g. Lipid peroxidation was induced by ferric ion plus ascorbic acid. The TBARS produced from the reaction of lipid peroxides with thiobarbituric acid was determined colorimetrically at 532 nm. Results were presented as percentage of lipid peroxidation inhibition in relation to the control. The IC50 values were determined from the graph plotted as percent inhibition of lipid peroxidation against concentration of each compound.

The nature of assay [3]: DPPH radical scavenging assay. The conditions noted are these: mean ± SD (n = 3). As to the method:
The DPPH radical scavenging ability of the compounds was estimated using the method described by Choi et al.. Catechin was used as a standard antioxidant for comparison. Compound at different concentrations was added to a methanolic solution of DPPH (0.135 mM) and vortexed and left for 30 minutes in the dark. The absorbance of the reaction mixture was measured spectrophotometrically at 517 nm. DPPH free radical scavenging ability (%) was calculated by using the following formula:(4) Absorbance of control−Absorbance of sample/Absorbance of control×100.
The result was presented as IC50 value which is the concentration required to cause 50% scavenging. The IC50 value was calculated from the graph plotted as percent scavenging of DPPH free radical against concentration of each compound.
In general terms: DPPH is a stable violet radical that fades when it is reduced.

The nature of assay [4]: Total antioxidant capacity (reduction of Mo (VI) to Mo (V)). The conditions noted are these: 80 μg/ml, 695 nm, mean ± SD (n = 3). Here is the method:
The antioxidant capacity of the compounds was assessed by the method as described earlier. The compound was added to a mixture of sulphuric acid (0.6 M), sodium phosphate (28 mM), and ammonium molybdate (4 mM) and heated in a water bath at 95°C for 90 min. After cooling to room temperature, the absorbance of the mixture was recorded at 695 nm against blank. A standard antioxidant catechin was used for comparison.

Assay [5] in a line: Reducing power assay (Fe+3-ferricyanide reduction). Here is the method:
The reducing power of the compounds was determined by the method of Oyaizu. The compound (1 ml) was added to a mixture of 0.2 M potassium buffer (2.5 ml) and 1% potassium ferricyanide (2.5 ml) and incubated at 50°C for 20 minutes. Then, 10% TCA solution (2.5 ml) was added to the reaction mixture and centrifuged (3000 rpm) for 10 minutes. Finally, 2.5 ml of solution was mixed with 2.5 ml of double distilled water and 0.5 ml of 0.1% ferric chloride solution. The absorbance of the reaction mixture was recorded at 700 nm. A standard antioxidant catechin was used for comparison.

A further assay deals with T1, AChE (Mus musculus, UniProt P21836).
T1 construct: The AChE enzyme was prepared from mouse brain as described earlier; from tissue; host or cells: brain of Swiss albino mice
The assay is described as follows: biochemical. The conditions noted are these: for Z-factor of acetylcholinesterase inhibitory activity: assay performance of the compound versus control. As to the method:
The AChE enzyme was prepared from mouse brain as described earlier. Compound at different concentrations was mixed with AChE solution and incubated at 37°C for 15 min. The rates of hydrolysis by AChE was monitored by spectrophotometer at 405 nm immediately after adding an Ellman's reaction mixture containing 0.5 mM acetylthiocholine and 1 mM 5, 5′-dithio-bis (2-nitro benzoic acid) (DTNB) in a 50 mM phosphate buffer (pH 8.0) to the above reaction mixture. […] The percentage inhibition of AChE activity was calculated using the following formula:(1) Absorbance of control−Absorbance of sample/Absorbance of control×100.
IC50 value could be calculated from the inhibition curve obtained by plotting the percent inhibition values against test concentrations of each compound.
Quality of assay was assessed by using Z' factor as follows:(2) Z′=1−3σc++σc−/μc+−μc−, where σc+ and σc−are the standard deviations of the positive and negative control and μc+ and μc−are the means of the positive and negative control, respectively.

The mark [6] stands for this setting: 100 μg/ml, 700 nm (as stated in Figure 4 legend), mean ± SD (n = 3).
Setting [7] is: mouse brain AChE, acetylthiocholine substrate, mean ± SD (n = 3), read-out: IC50, inhibition of acetylcholinesterase activity (converted).

Molecules are shown by their SMILES. ≈ marks a conversion by molar mass, not a printed value. Like-named read-outs stand apart in the source and are kept apart here.

T1 sequence (P21836 32-614): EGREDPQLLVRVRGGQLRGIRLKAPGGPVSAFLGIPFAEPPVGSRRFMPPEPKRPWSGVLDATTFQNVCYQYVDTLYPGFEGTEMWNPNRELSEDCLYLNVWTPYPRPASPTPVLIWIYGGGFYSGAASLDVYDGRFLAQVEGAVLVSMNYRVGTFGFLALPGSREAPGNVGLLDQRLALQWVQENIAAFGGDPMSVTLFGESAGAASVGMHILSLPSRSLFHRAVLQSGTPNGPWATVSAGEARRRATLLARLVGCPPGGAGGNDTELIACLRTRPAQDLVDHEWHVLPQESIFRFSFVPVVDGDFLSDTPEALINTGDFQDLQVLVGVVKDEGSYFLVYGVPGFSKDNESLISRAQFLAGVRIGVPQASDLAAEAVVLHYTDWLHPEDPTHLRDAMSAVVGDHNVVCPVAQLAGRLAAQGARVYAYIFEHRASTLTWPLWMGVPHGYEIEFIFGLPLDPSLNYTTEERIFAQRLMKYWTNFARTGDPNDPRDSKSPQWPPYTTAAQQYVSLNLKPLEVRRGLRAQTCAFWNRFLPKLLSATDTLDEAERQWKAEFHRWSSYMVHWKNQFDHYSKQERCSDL

As for `O.Oc1cc(O)c2c(c1)O[C@H](c1ccc(O)c(O)c1)[C@@H](O)C2` [Catechin, reference compound], the “IC50, hydroxyl radical scavenging” value in assay [1] stood at 9.32 ± 0.39 µg/mL. Moreover, the “IC50, inhibition of lipid peroxidation” value in assay [2] is 14.10 ± 0.43 µg/mL. Further, in assay [3], the “IC50, DPPH radical scavenging” value turned out to be 4.35 ± 0.09 µg/mL. For the same compound, the “Total antioxidant activity, absorbance” value in assay [4] is 1.739 ± 0.049. For the same compound, in assay [5] (setting [6]), the “Reducing power, absorbance” value worked out at 1.964 ± 0.019.

For the compound `CCCCC/C=C\C/C=C\CCCCCCCC(=O)OC` [Compound 1, methyl linoleate], on AChE (mouse brain AChE, acetylthiocholine substrate, mean ± SD (n = 3)), the “IC50, inhibition of acetylcholinesterase activity” value was “no activity”. In assay [1], the “IC50, hydroxyl radical scavenging” value was “no activity”. The “IC50, inhibition of lipid peroxidation” value in assay [2] was “no activity”. In assay [3], the “IC50, DPPH radical scavenging” value is “no activity”. Also, in assay [4], the “Total antioxidant activity, absorbance” value is “no activity”. For the same compound, the “Reducing power, absorbance” value in assay [5] (setting [6]) is given as “no activity”.

A word on the IC50: it is the midpoint of a concentration-inhibition curve. With `COc1cc(C=O)cc(OC)c1O` [Compound 2, syringaldehyde], at AChE, the IC50 was 6.96 mM and the “Z-factor of acetylcholinesterase inhibitory activity” value worked out at 0.80. In addition, the “IC50, hydroxyl radical scavenging” value in assay [1] is 91.05 ± 3.75 µg/mL (≈ 500 µM). For the same compound, the “IC50, inhibition of lipid peroxidation” value in assay [2] was found to be 141.60 ± 6.19 µg/mL. Also, in assay [3], the “IC50, DPPH radical scavenging” value is 40.64 ± 1.68 µg/mL (≈ 223 µM). The “Total antioxidant activity, absorbance” value in assay [4] is on record as 0.336 ± 0.009. Further, in assay [5] (80 μg/ml), the “Reducing power, absorbance” value was 0.667 ± 0.035. Also, the “Reducing power, absorbance” value in assay [5] (setting [6]) was found to be 0.667 ± 0.035.

For `COc1cc(C=O)ccc1O` [Compound 3, vanillin], on AChE, 0.556 mM corresponded to half-maximal inhibition (IC50). The “Z-factor of acetylcholinesterase inhibitory activity” value at AChE is 0.91. Further, the “IC50, hydroxyl radical scavenging” value in assay [1] is 21.72 ± 0.87 µg/mL (≈ 143 µM). Also, the “IC50, inhibition of lipid peroxidation” value in assay [2] stood at 57.02 ± 2.78 µg/mL. Further, in assay [3], the “IC50, DPPH radical scavenging” value was 19.64 ± 0.73 µg/mL (≈ 129 µM). Also, the “Total antioxidant activity, absorbance” value in assay [4] is 0.716 ± 0.020. The “Reducing power, absorbance” value in assay [5] (80 μg/ml) and in assay [5] (setting [6]) was 0.746 ± 0.005 in each case.

Consider `COc1cc(CCCOC(=O)CCc2ccc(O)cc2)ccc1O` [Compound 4, dihydroconiferyl dihydro-p-coumarate], for which the “Z-factor of acetylcholinesterase inhibitory activity” value on AChE turned out to be 0.87. The IC50 on AChE (setting [7]) was 0.358 mM. The “IC50, hydroxyl radical scavenging” value in assay [1] was found to be 15.07 ± 1.20 µg/mL (≈ 45.6 µM). Moreover, the “IC50, inhibition of lipid peroxidation” value in assay [2] turned out to be 44.20 ± 1.01 µg/mL. For the same compound, in assay [3], the “IC50, DPPH radical scavenging” value turned out to be 12.16 ± 0.55 µg/mL (≈ 36.8 µM). Moreover, the “Total antioxidant activity, absorbance” value in assay [4] is given as 0.735 ± 0.022. Also, the “Reducing power, absorbance” value in assay [5] (80 μg/ml) and in assay [5] (setting [6]) was 0.894 ± 0.014 in each case.

Turning to `COc1cc(O)cc(CCc2ccc(O)c(OC)c2)c1` [Compound 5, gigantol], the “Z-factor of acetylcholinesterase inhibitory activity” value on AChE was 0.80. Besides, the IC50 on AChE (setting [7]) is 2 mM. Also, in assay [1], the “IC50, hydroxyl radical scavenging” value was found to be 6.61 ± 0.76 µg/mL (≈ 24.1 µM). Also, the “IC50, inhibition of lipid peroxidation” value in assay [2] was 32.28 ± 1.10 µg/mL. The “IC50, DPPH radical scavenging” value in assay [3] amounted to 4.16 ± 0.37 µg/mL (≈ 15.2 µM). Also, the “Total antioxidant activity, absorbance” value in assay [4] is 0.848 ± 0.029. In addition, the “Reducing power, absorbance” value in assay [5] (80 μg/ml) and in assay [5] (setting [6]) was 1.865 ± 0.030 throughout.

The values are drawn from PMC8019628, “Acetylcholinesterase Inhibitory and Antioxidant Activity of the Compounds Isolated from Vanda roxburghii” (Advances in Pharmacological and Pharmaceutical Sciences, 2021).
